Structures can show the parent of a compound that is named as a salt.
biological target: T1, TAFIa (Homo sapiens, UniProt Q96IY4); assay: TAFIa inhibition test (Hip-Arg substrate, absorbance at 405 nm); assay type: biochemical; conditions: 40 minutes at room temperature, read-out: IC50 (TAFIa inhibitory activity)
T1 construct: purchased Enzyme Research Laboratories
T1 sequence (Q96IY4 115-423): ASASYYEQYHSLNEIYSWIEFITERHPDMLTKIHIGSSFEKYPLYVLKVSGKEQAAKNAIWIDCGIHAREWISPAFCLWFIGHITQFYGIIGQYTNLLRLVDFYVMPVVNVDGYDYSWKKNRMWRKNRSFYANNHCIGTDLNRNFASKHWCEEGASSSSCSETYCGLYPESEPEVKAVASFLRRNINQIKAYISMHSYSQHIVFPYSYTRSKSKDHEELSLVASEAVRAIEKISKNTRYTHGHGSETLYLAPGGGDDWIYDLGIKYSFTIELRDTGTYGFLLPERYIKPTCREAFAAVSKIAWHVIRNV
Method: Test 1 [TAFIa Inhibition Test]
Compounds of the present invention were measured for their TAFIa inhibitory activity as follows based on the method described in Thromb. Haemost. 371 (1988).
(a) Preparation of TAFIa Solution
To 450 μl of TAFI (the product of Enzyme Research Laboratories whose concentration was adjusted to 18 μg/ml with buffer A: 100 mM Tris-HCl buffer, pH 7.4), 45 μl of a thrombomodulin solution (a rabbit lung derived thrombomodulin produced by American Diagnostia whose concentration was adjusted to 1 μg/ml with buffer B: 50 mM Tris-HCl, pH 7.5, containing 0.15 M NaCl) and 45 μl of a thrombin solution (a freeze-dried human plasma derived thrombin produced by Sigma and dissolved in water to have a concentration of 30 μ/ml) were added and the mixture was left to stand for 25 minutes at room temperature.
(b) Method of Measuring TAFIa Inhibitory Activity
To wells on a 96-well microplate, the above-prepared TAFIa solution, a test compound, and a substrate solution (Hip-Arg produced by Sigma and dissolved in buffer C of 100 mM Tris-HCl buffer, pH 8.3, to have a concentration of 3.6 mM) were added in respective amounts of 20 μl/well, 10 μl/well, and 70 μl/well. The individual components were mixed well and the reaction was carried out for 40 minutes at room temperature.
Subsequently, a color former (1% cyanuric chloride in 1,4-dioxane) was added in an amount of 50 μl to each well and the plate was left to stand for 3 minutes at room temperature; then, the absorbance at 405 nm was measured with a microplate reader (Spectramax M2 of Molecular Devices). With the absorbance in the absence of a test compound minus the absorbance in the absence of an enzyme being taken as 100%, the concentration of the compound that inhibited 50% of the reaction (IC50) was calculated from the absorbance in the presence of the test compound minus the absorbance in the absence of the enzyme.
For several compounds of the present invention, the above test was conducted and on the basis of the results of measurements, TAFIa inhibitory activity was calculated to give the results shown in Table 2.

Question: Which IC50 does the source give for `NCCCC(Cc1ncn2c1CCc1ccccc1-2)C(=O)O` (stereo not drawn) [Example 1, 5-amino-2-(4,5-dihydroimidazo[1,5-a]quinolin-3-ylmethyl)pentanoic acid] here?
Answer: The IC50 was 95 nM.

Question: How did the IC50 turn out when `NCCC[C@@H](Cc1ncn2c1CCc1ccccc1-2)C(=O)O` [Example 2, (2S)-5-amino-2-(4,5-dihydroimidazo[1,5-a]quinolin-3-ylmethyl)pentanoic acid] was run?
Answer: The IC50 was 63 nM.

Question: `NCCC[C@H](Cc1ncn2c1CCc1ccccc1-2)C(=O)O` [Example 3, (2R)-5-amino-2-(4,5-dihydroimidazo[1,5-a]quinolin-3-ylmethyl)pentanoic acid] was tested. Which IC50 did it give?
Answer: Its IC50 is 860 nM.

Question: With `NCCCC(Cc1ncn2c1CCCc1ccccc1-2)C(=O)O` (stereo not drawn) [Example 4, 5-amino-2-(5,6-dihydro-4H-imidazo[1,5-a] [1]benzazepin-3-ylmethyl)pentanoic acid] as the compound, how does the IC50 read?
Answer: The IC50 was 3300 nM.

Question: How did the IC50 turn out when `NCCCC(Cc1ncn2c1COc1ccccc1-2)C(=O)O` (stereo not drawn) [Example 5, 5-amino-2-(4H-imidazo[5,1-c][1,4]benzoxazin-3-ylmethyl)pentanoic acid] was run?
Answer: Its IC50 is 1100 nM.

Question: Which IC50 does the source give for `NCCCC(Cc1ncn2c1CCc1ccncc1-2)C(=O)O` (stereo not drawn) [Example 6, 5-amino-2-(4,5-dihydroimidazo[1,5-a] [1,7]naphthyridin-3-ylmethyl)pentanoic acid] here?
Answer: The IC50 was 1600 nM.

Question: Which IC50 does the source give for `Cc1cccc2c1-n1cnc(CC(CCCN)C(=O)O)c1CC2` (stereo not drawn) [Example 7, 5-amino-2-[(9-methyl-4,5-dihydroimidazo[1,5-a]quinolin-3-yl)methyl]pentanoic acid dihydrochloride] here?
Answer: The IC50 was 6400 nM.

Question: How did the IC50 turn out when `CCc1cccc2c1CCc1c(CC(CCCN)C(=O)O)ncn1-2` (stereo not drawn) [Example 8, 5-amino-2-[(6-ethyl-4,5-dihydroimidazo[1,5-a]quinolin-3-yl)methyl]pentanoic acid] was run?
Answer: The IC50 was 270 nM.

Question: With `NCCCC(Cc1ncn2c1CCc1c(Cl)cccc1-2)C(=O)O` (stereo not drawn) [Example 9, 5-amino-2-[(6-chloro-4,5-dihydroimidazo[1,5-a]quinolin-3-yl)methyl]pentanoic acid] as the compound, how does the IC50 read?
Answer: Its IC50 is 190 nM.

Question: For `Cc1cccc2c1CCc1c(CC(CCCN)C(=O)O)ncn1-2` (stereo not drawn) [Example 10, 5-amino-2-[(6-methyl-4,5-dihydroimidazo[1,5-a]quinolin-3-yl)methyl]pentanoic acid], which IC50 is on record?
Answer: The IC50 was 150 nM.

Question: `Cc1ccc2c(c1)CCc1c(CC(CCCN)C(=O)O)ncn1-2` (stereo not drawn) [Example 11, 5-amino-2-[(7-methyl-4,5-dihydroimidazo[1,5-a]quinolin-3-yl)methyl]pentanoic acid dihydrochloride] was tested. Which IC50 did it give?
Answer: The IC50 was 61 nM.

Question: With `Cc1ccc2c(c1)-n1cnc(CC(CCCN)C(=O)O)c1CC2` (stereo not drawn) [Example 12, 5-amino-2-[(8-methyl-4,5-dihydroimidazo[1,5-a]quinolin-3-yl)methyl]pentanoic acid] as the compound, how does the IC50 read?
Answer: Its IC50 is 1800 nM.

Question: How did the IC50 turn out when `NCCCCC(C(=O)O)c1ncn2c1CCc1ccccc1-2` (stereo not drawn) [Example 13, 6-amino-2-(4,5-dihydroimidazo[1,5-a]quinolin-3-yl)hexanoic acid] was run?
Answer: Its IC50 is 3300 nM.

Question: `CCOc1ccc2c(c1)CCc1c(CC(CCCN)C(=O)O)ncn1-2` (stereo not drawn) [Example 14, 5-amino-2-[(7-ethoxy-4,5-dihydroimidazo[1,5-a]quinolin-3-yl)methyl]pentanoic acid] was tested. Which IC50 did it give?
Answer: The IC50 was 110 nM.

Question: `NCCCC(Cc1ncn2c1CCc1cc(-c3ccccc3)ccc1-2)C(=O)O` (stereo not drawn) [Example 15, 5-amino-2-[(7-phenyl-4,5-dihydroimidazo[1,5-a]quinolin-3-yl)methyl]pentanoic acid dihydrochloride] was tested. Which IC50 did it give?
Answer: The IC50 was 140 nM.

Question: How did the IC50 turn out when `NCCCC(Cc1ncn2c1CCc1cc(OC3CCCCC3)ccc1-2)C(=O)O` (stereo not drawn) [Example 16, 5-amino-2-{[7-(cyclohexyloxy)-4,5-dihydroimidazo[1,5-a]quinolin-3-yl)methyl]pentanoic acid] was run?
Answer: The IC50 was 180 nM.

Question: With `CCCc1ccc2c(c1)CCc1c(CC(CCCN)C(=O)O)ncn1-2` (stereo not drawn) [Example 17, 5-amino-2-[(7-propyl-4,5-dihydroimidazo[1,5-a]quinolin-3-yl)methyl]pentanoic acid dihydrochloride] as the compound, how does the IC50 read?
Answer: The IC50 was 67 nM.

Question: Which IC50 does the source give for `NCCCC(Cc1ncn2c1CNc1ccccc1-2)C(=O)O` (stereo not drawn) [Example 18, 5-amino-2-(4,5-dihydroimidazo[1,5-a]quinoxalin-3-ylmethyl)pentanoic acid] here?
Answer: The IC50 was 630 nM.

Question: `NCCCC(Cc1ncn2c1CCc1ncccc1-2)C(=O)O` (stereo not drawn) [Example 19, 5-amino-2-(4,5-dihydroimidazo[1,5-a] [1,5]naphthyridin-3-ylmethyl)pentanoic acid] was tested. Which IC50 did it give?
Answer: Its IC50 is 580 nM.

Question: For `CNCCCC(Cc1ncn2c1CCc1ccccc1-2)C(=O)O` (stereo not drawn) [Example 20, 2-(4,5-dihydroimidazo[1,5-a]quinolin-3-ylmethyl)-5-(methylamino)pentanoic acid], which IC50 is on record?
Answer: The IC50 was 2300 nM.

Question: With `NCCCC(Cc1ncn2c1Cc1ccccc1C2)C(=O)O` (stereo not drawn) [Example 21, 5-amino-2-(5,10-dihydroimidazo[1,5-b]isoquinolin-1-ylmethyl)pentanoic acid] as the compound, how does the IC50 read?
Answer: Its IC50 is 1400 nM.

Question: `Nc1cc(C(Cc2ncn3c2CCc2ccccc2-3)C(=O)O)ccn1` (stereo not drawn) [Example 22, 2-(2-aminopyridin-4-yl)-3-(4,5-dihydroimidazo[1,5-a]quinolin-3-yl)propanoic acid dihydrochloride] was tested. Which IC50 did it give?
Answer: The IC50 was 5100 nM.

Question: For `NCCCC(Cc1ncn2c1CCc1ccccc1-2)c1nnn[nH]1` (stereo not drawn) [Example 23, 5-(4,5-dihydroimidazo[1,5-a]quinolin-3-yl)-4-(1H-tetrazol-5-yl)pentan-1-amine], which IC50 is on record?
Answer: Its IC50 is 4400 nM.

Question: With `NCCC[C@@H](Cc1ncn2c1CCc1cc(CCC3CCCCC3)ccc1-2)C(=O)O` [Example 24, (25)-5-amino-2-{[7-(2-cyclohexylethyl)-4,5-dihydroimidazo[1,5-a]quinolin-3-yl]methyl}pentanoic acid dihydrochloride] as the compound, how does the IC50 read?
Answer: Its IC50 is 43 nM.

Question: For `NCCC[C@@H](Cc1ncn2c1CCc1cc(C3CCCCC3)ccc1-2)C(=O)O` [Example 25, (2S)-5-amino-2-[(7-cyclohexyl-4,5-dihydroimidazo[1,5-a]quinolin-3-yl)methyl]pentanoic acid dihydrochloride], which IC50 is on record?
Answer: Its IC50 is 28 nM.

Question: With `NCCC[C@@H](Cc1ncn2c1CCc1cc(F)ccc1-2)C(=O)O` [Example 26, (2S)-5-amino-2-[(7-fluoro-4,5-dihydroimidazo[1,5-a]quinolin-3-yl]methyl}pentanoic acid dihydrochloride] as the compound, how does the IC50 read?
Answer: Its IC50 is 72 nM.

Question: With `NCCCC(Cc1ncn2c1CCc1cc(C(F)(F)F)ccc1-2)C(=O)O` (stereo not drawn) [Example 27, 5-amino-2-{[7-(trifluoromethyl)-4,5-dihydroimidazo[1,5-a]quinolin-3-yl]methyl}pentanoic acid dihydrochloride] as the compound, how does the IC50 read?
Answer: The IC50 was 410 nM.

Question: For `CC(C)c1ccc2c(c1)CCc1c(C[C@H](CCCN)C(=O)O)ncn1-2` [Example 28, (2S)-5-amino-2-[(7-isopropyl-4,5-dihydroimidazo[1,5-a]quinolin-3-yl)methyl]pentanoic acid dihydrochloride], which IC50 is on record?
Answer: The IC50 was 33 nM.

Question: Which IC50 does the source give for `Cc1ccc2c(c1)CCc1c(C[C@H](CCCN)C(=O)O)ncn1-2` [Example 29, (2S)-5-amino-2-[(7-methyl-4,5-dihydroimidazo[1,5-a]quinolin-3-yl)methyl]pentanoic acid dihydrochloride] here?
Answer: Its IC50 is 25 nM.

Question: How did the IC50 turn out when `CCCc1ccc2c(c1)CCc1c(C[C@H](CCCN)C(=O)O)ncn1-2` [Example 30, (S)-5-amino-2-((7-propyl-4,5-dihydroimidazo[1,5-a]quinolin-3-yl)methyl)pentanoic acid dihydrochloride] was run?
Answer: Its IC50 is 28 nM.

Reference: patent US20110213143A1, “COMPOUND HAVING TAFIA INHIBITORY ACTIVITY” (TAISHO PHARMACEUTICAL CO., LTD., priority 2008, published 2011)
